Test results from paper PMC5218480 (PLoS ONE, 2017).

System: MV-4-11 cells
Experiment: Gene expression microarray analysis (Affymetrix PrimeView) and GSEA
Format: cell-based, human
Set-up: RFU PODN (11730768_x_at) / Fold change /veh PODN (11730768_x_at) / RFU LINC00158 (11744669_a_at) / Fold change /veh LINC00158 (11744669_a_at) / RFU DUSP10 (11751237_a_at) / Fold change /veh DUSP10 (11751237_a_at) / RFU ID3 (11757404_x_at) / Fold change /veh ID3 (11757404_x_at) / RFU PLEKHG5 (11737974_s_at) / Fold change /veh PLEKHG5 (11737974_s_at) / RFU LRRC4B (11730491_at) / Fold change /veh LRRC4B (11730491_at) / RFU GIMAP4 (11747438_a_at) / Fold change /veh GIMAP4 (11747438_a_at) / RFU KRT8 (11758183_x_at) / Fold change /veh KRT8 (11758183_x_at) / RFU CNN1 (11734310_a_at) / Fold change /veh CNN1 (11734310_a_at) / RFU VPS37D (11726825_at) / Fold change /veh VPS37D (11726825_at) / RFU C10orf10 (11716522_x_at) / Fold change /veh C10orf10 (11716522_x_at) / RFU KIR2DL2 /// KIR2DL4 /// KIR2DL5A /// KIR2DL5B /// KIR2DS1 /// KIR2DS2 /// KIR2DS3 /// KIR2DS4 /// KIR3DL3 /// KIR3DL3 /// KIR3DS1 (11738374_at) / Fold change /veh KIR2DL2 /// KIR2DL4 /// KIR2DL5A /// KIR2DL5B /// KIR2DS1 /// KIR2DS2 /// KIR2DS3 /// KIR2DS4 /// KIR3DL3 /// KIR3DL3 /// KIR3DS1 (11738374_at) / RFU C1QL1 (11718748_at) / Fold change /veh C1QL1 (11718748_at) / RFU TMPRSS4 (11747572_a_at) / Fold change /veh TMPRSS4 (11747572_a_at) / RFU HAMP (11756126_x_at) / Fold change /veh HAMP (11756126_x_at) / RFU RNFT2 (11725882_a_at) / Fold change /veh RNFT2 (11725882_a_at) / RFU NR4A2 (11747474_a_at) / Fold change /veh NR4A2 (11747474_a_at) / RFU ABCC12 (11746883_a_at) / Fold change /veh ABCC12 (11746883_a_at) / RFU TMEM136 (11760407_x_at) / Fold change /veh TMEM136 (11760407_x_at) / RFU CLDN22 /// WWC2 (11732394_at) / Fold change /veh CLDN22 /// WWC2 (11732394_at) / RFU HLA-DPB1 (11760878_x_at) / Fold change /veh HLA-DPB1 (11760878_x_at) / RFU SPINT1 (11716480_a_at) / Fold change /veh SPINT1 (11716480_a_at) / RFU GAP43 (11754022_s_at) / Fold change /veh GAP43 (11754022_s_at) / RFU A4GNT (11735810_at) / Fold change /veh A4GNT (11735810_at) / RFU PRB3 (11715151_x_at) / Fold change /veh PRB3 (11715151_x_at) / RFU TUBB4B (11761932_at) / Fold change /veh TUBB4B (11761932_at) / RFU CAPN14 (11732068_a_at) / Fold change /veh CAPN14 (11732068_a_at) / RFU TMCC2 (11721928_a_at) / Fold change /veh TMCC2 (11721928_a_at) / RFU IRGQ (11745062_a_at) / Fold change /veh IRGQ (11745062_a_at) / RFU FAM174B (11720279_a_at) / Fold change /veh FAM174B (11720279_a_at) / RFU TMPRSS4 (11748680_a_at) / Fold change /veh TMPRSS4 (11748680_a_at) / RFU FAM212B (11763350_a_at) / Fold change /veh FAM212B (11763350_a_at) / RFU PLEKHG5 (11743358_a_at) / Fold change /veh PLEKHG5 (11743358_a_at) / RFU ZSCAN30 (11745921_a_at) / Fold change /veh ZSCAN30 (11745921_a_at) / RFU CMKLR1 (11741424_a_at) / Fold change /veh CMKLR1 (11741424_a_at) / RFU LOC101060620 /// MAPK8IP1 (11723275_at) / Fold change /veh LOC101060620 /// MAPK8IP1 (11723275_at) / RFU SPTSSB (11747773_x_at) / Fold change /veh SPTSSB (11747773_x_at) / RFU PRSS12 (11739890_at) / Fold change /veh PRSS12 (11739890_at) / RFU BIN1 (11741810_x_at) / Fold change /veh BIN1 (11741810_x_at) / RFU WNT11 (11732464_a_at) / Fold change /veh WNT11 (11732464_a_at) / RFU C10orf10 (11716521_a_at) / Fold change /veh C10orf10 (11716521_a_at) / RFU C5orf56 (11738089_at) / Fold change /veh C5orf56 (11738089_at) / RFU CYB561 (11721691_x_at) / Fold change /veh CYB561 (11721691_x_at) / RFU ANKRD19P (11752326_a_at) / Fold change /veh ANKRD19P (11752326_a_at) / RFU OR2T12 /// OR2T33 /// OR2T8 (11738714_s_at) / Fold change /veh OR2T12 /// OR2T33 /// OR2T8 (11738714_s_at) / RFU VCAN (11748164_a_at) / Fold change /veh VCAN (11748164_a_at) / RFU JSRP1 (11732532_at) / Fold change /veh JSRP1 (11732532_at) / RFU KRTAP10-11 (11738290_x_at) / Fold change /veh KRTAP10-11 (11738290_x_at) / RFU MYO3A (11730013_a_at) / Fold change /veh MYO3A (11730013_a_at) / RFU EBF3 (11725865_a_at) / Fold change /veh EBF3 (11725865_a_at) / RFU CAMK2N1 (11719241_x_at) / Fold change /veh CAMK2N1 (11719241_x_at) / RFU C5orf56 (11738088_a_at) / Fold change /veh C5orf56 (11738088_a_at) / RFU OLFML3 (11715873_a_at) / Fold change /veh OLFML3 (11715873_a_at) / RFU LOC100653217 /// NTM (11731650_a_at) / Fold change /veh LOC100653217 /// NTM (11731650_a_at) / RFU MAPK11 (11762145_a_at) / Fold change /veh MAPK11 (11762145_a_at) / RFU FIZ1 (11724087_x_at) / Fold change /veh FIZ1 (11724087_x_at) / RFU OASL (11726364_x_at) / Fold change /veh OASL (11726364_x_at) / RFU SOX15 (11748057_x_at) / Fold change /veh SOX15 (11748057_x_at) / RFU CD79A (11719716_a_at) / Fold change /veh CD79A (11719716_a_at) / RFU HIST1H1D (11736915_at) / Fold change /veh HIST1H1D (11736915_at) / RFU CASKIN2 (11723855_a_at) / Fold change /veh CASKIN2 (11723855_a_at) / RFU LOC730098 (11760151_x_at) / Fold change /veh LOC730098 (11760151_x_at) / RFU OR4N2 (11742367_at) / Fold change /veh OR4N2 (11742367_at) / RFU PRRT2 (11749266_a_at) / Fold change /veh PRRT2 (11749266_a_at) / RFU SNX32 (11753110_a_at) / Fold change /veh SNX32 (11753110_a_at) / RFU CDHR5 (11726645_a_at) / Fold change /veh CDHR5 (11726645_a_at) / RFU RCAN1 (11760418_a_at) / Fold change /veh RCAN1 (11760418_a_at) / RFU FAM167A (11723789_a_at) / Fold change /veh FAM167A (11723789_a_at) / RFU FAM26E (11764081_at) / Fold change /veh FAM26E (11764081_at) / RFU ISYNA1 (11749810_s_at) / Fold change /veh ISYNA1 (11749810_s_at) / RFU ACY1 (11761880_at) / Fold change /veh ACY1 (11761880_at) / RFU 11764098_at / Fold change /veh 11764098_at / RFU SAMD14 (11745864_x_at) / Fold change /veh SAMD14 (11745864_x_at) / RFU NPB (11741838_a_at) / Fold change /veh NPB (11741838_a_at) / RFU TMPRSS6 (11731388_a_at) / Fold change /veh TMPRSS6 (11731388_a_at) / RFU KRTAP10-2 (11738614_at) / Fold change /veh KRTAP10-2 (11738614_at) / RFU ARHGAP8 /// PRR5-ARHGAP8 (11727945_x_at) / Fold change /veh ARHGAP8 /// PRR5-ARHGAP8 (11727945_x_at) / RFU KRTAP5-7 /// NADSYN1 (11734609_at) / Fold change /veh KRTAP5-7 /// NADSYN1 (11734609_at) / RFU RASL12 (11751679_a_at) / Fold change /veh RASL12 (11751679_a_at) / RFU CDKN2B (11736163_a_at) / Fold change /veh CDKN2B (11736163_a_at) / RFU PRF1 (11729649_at) / Fold change /veh PRF1 (11729649_at) / RFU, ZNF638 /// ZNF638-IT1 / Fold change vs veh, ZNF638 /// ZNF638-IT1 / RFU, PANK3 / Fold change vs veh, PANK3 / RFU, SH3YL1 / Fold change vs veh, SH3YL1 / RFU, ZEB2 / Fold change vs veh, ZEB2 / RFU, NRIP1 / Fold change vs veh, NRIP1 / RFU, PTTG1IP / Fold change vs veh, PTTG1IP / RFU, CAPN2 / Fold change vs veh, CAPN2 / RFU, MED14 / Fold change vs veh, MED14 / RFU, SNORA58 / Fold change vs veh, SNORA58 / RFU, C1orf63 / Fold change vs veh, C1orf63 / RFU, LRRFIP1 / Fold change vs veh, LRRFIP1 / RFU, NDUFAF7 / Fold change vs veh, NDUFAF7 / RFU, SLC12A2 / Fold change vs veh, SLC12A2 / RFU, IBTK / Fold change vs veh, IBTK / RFU, ESF1 / Fold change vs veh, ESF1 / Fold change vs veh, TMEM50B / RFU, TAOK1 / Fold change vs veh, TAOK1 / RFU, ACBD3 / Fold change vs veh, ACBD3 / RFU, TMA16 / Fold change vs veh, TMA16 / RFU, RWDD3 / Fold change vs veh, RWDD3 / RFU, BCAT1 / Fold change vs veh, BCAT1 / RFU, EDEM3 / Fold change vs veh, EDEM3 / RFU, TMEM33 / Fold change vs veh, TMEM33 / RFU, WDR75 / Fold change vs veh, WDR75 / RFU, AHCTF1 / Fold change vs veh, AHCTF1 / RFU, TFRC / Fold change vs veh, TFRC / RFU, ZDHHC17 / Fold change vs veh, ZDHHC17 / RFU, NOM1 / Fold change vs veh, NOM1 / RFU, ARL8B / Fold change vs veh, ARL8B / RFU, ZBTB11 / Fold change vs veh, ZBTB11 / RFU, TAMM41 / Fold change vs veh, TAMM41 / RFU, KIAA1704 /// LOC100996395 / Fold change vs veh, KIAA1704 /// LOC100996395 / RFU, ING1 / Fold change vs veh, ING1 / RFU, TRMT61B / Fold change vs veh, TRMT61B / RFU, FUBP3 / Fold change vs veh, FUBP3 / RFU, TP53 / Fold change vs veh, TP53 / RFU, TNKS2 / Fold change vs veh, TNKS2 / RFU, ZFP14 / Fold change vs veh, ZFP14 / RFU, ACTR2 / Fold change vs veh, ACTR2 / RFU, PPP3R1 / Fold change vs veh, PPP3R1 / RFU, PIK3R1 / Fold change vs veh, PIK3R1 / RFU, HNRNPA1 / Fold change vs veh, HNRNPA1 / RFU, RNF170 / Fold change vs veh, RNF170 / RFU, ZNF28 / Fold change vs veh, ZNF28 / RFU, RNGTT / Fold change vs veh, RNGTT / RFU, OGT / Fold change vs veh, OGT / RFU, BRD1 / Fold change vs veh, BRD1 / RFU, MARS / Fold change vs veh, MARS / RFU, ZNF655 / Fold change vs veh, ZNF655 / RFU, FAHD1 / Fold change vs veh, FAHD1 / RFU, BDP1 / Fold change vs veh, BDP1 / RFU, LRRCC1 / Fold change vs veh, LRRCC1 / RFU, ARID1A / Fold change vs veh, ARID1A / RFU, ZNF146 / Fold change vs veh, ZNF146 / RFU, ZNF330 / Fold change vs veh, ZNF330 / RFU, GPN3 / Fold change vs veh, GPN3 / RFU, C9orf123 / Fold change vs veh, C9orf123 / RFU, N4BP2L2 / Fold change vs veh, N4BP2L2 / RFU, ARFIP1 / Fold change vs veh, ARFIP1 / RFU, FAM179B / Fold change vs veh, FAM179B / RFU, BCL10 / Fold change vs veh, BCL10 / RFU, UHRF1BP1L / Fold change vs veh, UHRF1BP1L / RFU, BET1 / Fold change vs veh, BET1 / RFU, CNOT2 / Fold change vs veh, CNOT2 / RFU, ZNF268 / Fold change vs veh, ZNF268 / Fold change vs veh, ZNF507 / RFU, DGCR2 / Fold change vs veh, DGCR2 / RFU, WDSUB1 / Fold change vs veh, WDSUB1 / Fold change vs veh, HSP90B1 /// MIR3652 / RFU, ADSS / Fold change vs veh, ADSS / RFU, GK / Fold change vs veh, GK / RFU, ZNF148 / Fold change vs veh, ZNF148 / RFU, TAF9 / Fold change vs veh, TAF9 / RFU, SLC1A5 / Fold change vs veh, SLC1A5 / RFU, SLMO2 / Fold change vs veh, SLMO2 / RFU, ABCC4 / Fold change vs veh, ABCC4 / RFU, LOC101060439 /// RAP1B / Fold change vs veh, LOC101060439 /// RAP1B / RFU, RFX7 / Fold change vs veh, RFX7 / RFU, GTPBP10 / Fold change vs veh, GTPBP10 / RFU, CNEP1R1 / Fold change vs veh, CNEP1R1 / RFU, BIVM-ERCC5 /// ERCC5 / Fold change vs veh, BIVM-ERCC5 /// ERCC5 / RFU, ILF3 / Fold change vs veh, ILF3 / RFU 11762660_at / Fold change /veh 11762660_at / RFU VCAN (11757783_s_at) / Fold change /veh VCAN (11757783_s_at) / RFU DDX43 (11728927_at) / Fold change /veh DDX43 (11728927_at) / RFU KRT8 (11758188_x_at) / Fold change /veh KRT8 (11758188_x_at) / RFU NKD1 (11759106_at) / Fold change /veh NKD1 (11759106_at) / RFU SRD5A1 (11742802_a_at) / Fold change /veh SRD5A1 (11742802_a_at) / RFU TPSAB1 /// TPSB2 (11721975_s_at) / Fold change /veh TPSAB1 /// TPSB2 (11721975_s_at) / RFU GSTM3 (11746129_a_at) / Fold change /veh GSTM3 (11746129_a_at) / RFU IL23R (11737362_x_at) / Fold change /veh IL23R (11737362_x_at) / RFU TMEM51 (11727254_a_at) / Fold change /veh TMEM51 (11727254_a_at) / RFU PIWIL2 (11732686_x_at) / Fold change /veh PIWIL2 (11732686_x_at) / RFU ORM1 (11744905_x_at) / Fold change /veh ORM1 (11744905_x_at) / RFU CCDC152 (11743942_at) / Fold change /veh CCDC152 (11743942_at) / RFU ECM1 (11717891_a_at) / Fold change /veh ECM1 (11717891_a_at) / RFU IL23R (11748794_a_at) / Fold change /veh IL23R (11748794_a_at) / RFU TNFAIP8L3 (11732012_x_at) / Fold change /veh TNFAIP8L3 (11732012_x_at) / RFU MBOAT4 (11741988_at) / Fold change /veh MBOAT4 (11741988_at) / RFU 11764193_at / Fold change /veh 11764193_at / RFU TMEM53 (11763286_at) / Fold change /veh TMEM53 (11763286_at) / RFU MAGEB2 (11727129_at) / Fold change /veh MAGEB2 (11727129_at) / RFU TMEM200A (11744735_a_at) / Fold change /veh TMEM200A (11744735_a_at) / RFU CCDC152 (11751479_a_at) / Fold change /veh CCDC152 (11751479_a_at) / RFU FAM211A (11726209_a_at) / Fold change /veh FAM211A (11726209_a_at) / RFU RGS16 (11746705_a_at) / Fold change /veh RGS16 (11746705_a_at) / RFU VCAN (11755009_s_at) / Fold change /veh VCAN (11755009_s_at) / RFU RHOB (11743442_s_at) / Fold change /veh RHOB (11743442_s_at) / RFU RGS16 (11720943_a_at) / Fold change /veh RGS16 (11720943_a_at) / RFU RGS16 (11720944_at) / Fold change /veh RGS16 (11720944_at) / RFU, VPS4B / Fold change vs veh, VPS4B / RFU, CREB1 / Fold change vs veh, CREB1 / RFU, DNAJC13 / Fold change vs veh, DNAJC13 / RFU, GNAQ / Fold change vs veh, GNAQ / RFU, CDK5R1 / Fold change vs veh, CDK5R1 / RFU, ZRANB3 / Fold change vs veh, ZRANB3 / RFU, CUL4A / Fold change vs veh, CUL4A / RFU, CCNY / Fold change vs veh, CCNY / RFU, UFL1 / Fold change vs veh, UFL1 / RFU, COG3 / Fold change vs veh, COG3 / RFU, DIAPH2 / Fold change vs veh, DIAPH2 / RFU, SKA2 / Fold change vs veh, SKA2 / RFU, AFF3 / Fold change vs veh, AFF3 / RFU, LMF1 / Fold change vs veh, LMF1 / RFU, IPO11 / Fold change vs veh, IPO11 / RFU, DFFB / Fold change vs veh, DFFB / RFU, FOXP1 / Fold change vs veh, FOXP1 / RFU, CARD8 / Fold change vs veh, CARD8 / RFU, STRN3 / Fold change vs veh, STRN3 / RFU, ADK / Fold change vs veh, ADK / RFU, RASSF2 / Fold change vs veh, RASSF2 / RFU, WIPF1 / Fold change vs veh, WIPF1 / RFU, LARP1B / Fold change vs veh, LARP1B / RFU, RASA1 / Fold change vs veh, RASA1 / RFU, RB1 / Fold change vs veh, RB1 / RFU, PPFIA1 / Fold change vs veh, PPFIA1 / RFU, MAT2A / Fold change vs veh, MAT2A / RFU, CCT5 / Fold change vs veh, CCT5 / RFU, WDR92 / Fold change vs veh, WDR92 / RFU, CUX1 / Fold change vs veh, CUX1 / RFU, TTC7A / Fold change vs veh, TTC7A / RFU, TMEM135 / Fold change vs veh, TMEM135 / RFU, DEPTOR / Fold change vs veh, DEPTOR / RFU, CPM / Fold change vs veh, CPM / RFU, DNAJB6 / Fold change vs veh, DNAJB6 / RFU, CACNA2D3 / Fold change vs veh, CACNA2D3 / RFU, DTX4 / Fold change vs veh, DTX4 / RFU, TFCP2 / Fold change vs veh, TFCP2 / RFU, GMCL1 /// GMCL1P1 / Fold change vs veh, GMCL1 /// GMCL1P1 / RFU, AEBP2 / Fold change vs veh, AEBP2 / RFU, SNHG1 /// SNORD22 /// SNORD25 /// SNORD26 /// SNORD27 /// SNORD28 /// SNORD29 /// SNORD31 / Fold change vs veh, SNHG1 /// SNORD22 /// SNORD25 /// SNORD26 /// SNORD27 /// SNORD28 /// SNORD29 /// SNORD31 / Fold change (Aza/veh), C12orf56 (ProbeSet 11735607_a_at) / Fold change (ACY-1035/veh), C12orf56 (ProbeSet 11735607_a_at) / Fold change (Aza/veh), FGFR1OP (ProbeSet 11751329_s_at) / Fold change (ACY-1035/veh), FGFR1OP (ProbeSet 11751329_s_at) / Fold change (Aza/veh), VPS36 (ProbeSet 11739960_a_at) / Fold change (ACY-1035/veh), VPS36 (ProbeSet 11739960_a_at) / RFU SYPL1 (11715823_x_at) / Fold change /veh SYPL1 (11715823_x_at) / RFU IGFBP7 (11715501_s_at) / Fold change /veh IGFBP7 (11715501_s_at) / RFU REEP3 (11722064_at) / Fold change /veh REEP3 (11722064_at) / RFU IGLL1 (11728026_x_at) / Fold change /veh IGLL1 (11728026_x_at): dose or concentration left out as unconfirmed
Conditions: ProbeSet 11758397_s_at; LIST B

For `Nc1ncn([C@@H]2O[C@H](CO)[C@@H](O)[C@H]2O)c(=O)n1` [azacitidine], which “Fold change vs veh, RNF170” value is on record?
Its value is 1.07.
